Assay [1] concerns Aspergillus fumigatus. Put plainly: Antifungal activity against Aspergillus fumigatus isolate AF 293 infected in ICR mouse assessed survival of the mouse at 40 mg/kg, po QD. Further details: dose 40 mg/kg. The assay is classed as functional, organism-based.
The test system of assay [2] is Aspergillus fumigatus. Put plainly: Antifungal activity against Aspergillus fumigatus isolate AF 293 infected in ICR mouse assessed as decrease in (1-3)-beta-D-glucan concentration in serum at 40 mg/kg, po QD (RVb= 758 pg/ml). The assay is classed as functional, organism-based. Further details: dose 40 mg/kg.
In assay [3] the test system is Aspergillus fumigatus. Put plainly: Antifungal activity against Aspergillus fumigatus isolate CEA 10 infected in ICR mouse assessed as decrease in (1-3)-beta-D-glucan concentration in serum at 40 mg/kg, po QD (RVb= 707 pg/ml). The assay is classed as functional, organism-based. Also noted: dose 40 mg/kg.
Assay [4] deals with Aspergillus fumigatus. Briefly: Antifungal activity against Aspergillus fumigatus isolate CEA 10 infected in ICR mouse assessed survival of the mouse at 40 mg/kg, po QD. The assay is classed as functional, organism-based. Also noted: dose 40 mg/kg.
Assay [5] has as its system Aspergillus fumigatus. Put plainly: Antifungal activity against Aspergillus fumigatus isolate AF 293 infected in ICR mouse assessed as pulmonary fungal burden at 40 mg/kg, po QD. The assay is classed as functional.
Assay [6] concerns Aspergillus fumigatus. Briefly: Antifungal activity against Aspergillus fumigatus isolate CEA 10 infected in ICR mouse assessed as pulmonary fungal burden at 40 mg/kg, po QD. The class given is functional.

Calls of active or inactive are those of the source. No cut-off for these calls is given here.

Consider `CC[C@@H]([C@H](C)O)n1ncn(-c2ccc(N3CCN(c4ccc(OC[C@@H]5CO[C@@](Cn6cncn6)(c6ccc(F)cc6F)C5)cc4)CC3)cc2)c1=O` [POSACONAZOLE], for which the result in assay [1], in assay [2], in assay [3] and in assay [4] was Active. Also, the “fold change (FC)” value in assay [5] was found to be 3.6; in assay [6] it was 7.3.
